Measured values reported in ChEMBL document CHEMBL1132210, “Ligands for the tyrosine kinase p56lck SH2 domain: discovery of potent dipeptide derivatives with monocharged, nonhydrolyzable phosphate replacements” (J Med Chem, 1999).
Non-standard residues stand in square brackets, D forms with d. Residues, ends and D or L forms follow the SMILES beside them. Phe(4-CH2COOH) = N[C@@H](Cc1ccc(CC(=O)O)cc1)C(=O)O

Molecular target: Tyrosine-protein kinase Lck (Homo sapiens, UniProt P06239)
Experiment: Binding affinity towards p56 Lck tyrosine kinase SH2 domain was determined by biological assay

Sequence of Tyrosine-protein kinase Lck (P06239 whole entry, the tested form may be a part): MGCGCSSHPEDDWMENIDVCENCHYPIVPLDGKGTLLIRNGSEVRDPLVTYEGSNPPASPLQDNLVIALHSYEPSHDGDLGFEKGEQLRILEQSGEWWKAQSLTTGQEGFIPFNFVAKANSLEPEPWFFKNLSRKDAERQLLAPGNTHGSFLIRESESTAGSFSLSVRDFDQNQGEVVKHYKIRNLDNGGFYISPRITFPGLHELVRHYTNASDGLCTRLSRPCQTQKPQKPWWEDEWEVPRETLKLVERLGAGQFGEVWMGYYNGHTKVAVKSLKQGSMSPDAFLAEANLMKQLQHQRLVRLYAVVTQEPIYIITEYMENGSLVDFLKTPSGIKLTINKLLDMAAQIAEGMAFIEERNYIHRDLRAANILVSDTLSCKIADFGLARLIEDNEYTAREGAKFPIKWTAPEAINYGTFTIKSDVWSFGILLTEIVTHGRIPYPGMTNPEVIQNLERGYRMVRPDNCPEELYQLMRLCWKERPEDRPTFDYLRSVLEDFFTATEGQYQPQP

Kd | Structure (SMILES)
184 µM | COc1ccc(CNC(=O)[C@H](CCC(=O)O)NC(=O)[C@H](Cc2ccc(CCC(=O)O)cc2)NC(C)=O)cc1
0.04 µM | COc1ccc(CNC(=O)[C@H](CCC(=O)O)NC(=O)[C@H](Cc2ccc(OP(=O)(O)O)cc2)NC(=O)Cc2cccc3ccccc23)cc1
42 µM | COc1ccc(CNC(=O)[C@H](CCC(=O)O)NC(=O)[C@H](Cc2ccc(NC(=O)C(=O)O)cc2)NC(C)=O)cc1
17 µM | COc1ccc(CNC(=O)[C@H](CCC(=O)O)NC(=O)[C@H](Cc2ccc(NC(=O)C(=O)O)cc2)NC(=O)Cc2ccccc2)cc1
166 µM | COc1ccc(CNC(=O)[C@H](CCC(=O)O)NC(=O)[C@H](Cc2ccc(C(F)(F)C(=O)O)cc2)NC(C)=O)cc1
13 µM | COc1ccc(CNC(=O)[C@H](CCC(=O)O)NC(=O)[C@H](Cc2ccc(NC(=O)C(=O)O)cc2)NC(=O)CCc2ccccc2)cc1
5 µM | COc1ccc(CNC(=O)[C@H](CCC(=O)O)NC(=O)[C@H](Cc2ccc(CC(=O)O)cc2)NC(=O)Cc2cccc3ccccc23)cc1
65 µM | COc1ccc(CNC(=O)[C@H](CCC(=O)O)NC(=O)[C@H](Cc2ccc(C(=O)C(=O)O)cc2)NC(C)=O)cc1
4 µM | COc1ccc(CNC(=O)[C@H](CCC(=O)O)NC(=O)[C@H](Cc2ccc(CS(=O)(=O)O)cc2)NC(=O)Cc2cccc3ccccc23)cc1
50 µM | COc1ccc(CNC(=O)[C@H](CCC(=O)O)NC(=O)[C@H](Cc2ccc(CC(=O)O)cc2)NC(C)=O)cc1
3 µM | COc1ccc(CNC(=O)[C@H](CCC(=O)O)NC(=O)[C@H](Cc2ccc(NC(=O)C(=O)O)cc2)NC(=O)Cc2ccc3ccccc3c2)cc1
2 µM | COc1ccc(CNC(=O)[C@H](CCC(=O)O)NC(=O)[C@H](Cc2ccc(C(O)C(=O)O)cc2)NC(=O)Cc2cccc3ccccc23)cc1 (stereo partly specified)
15 µM | COc1ccc(CNC(=O)[C@H](CCC(=O)O)NC(=O)[C@H](Cc2ccc(C(O)C(=O)O)cc2)NC(C)=O)cc1 (stereo partly specified)
25 µM | COc1ccc(CNC(=O)[C@H](CCC(=O)O)NC(=O)[C@H](Cc2ccc(CS(=O)(=O)O)cc2)NC(C)=O)cc1
42 µM | CC[C@H](C)[C@H](NC(=O)[C@H](CCC(=O)O)NC(=O)[C@H](CCC(=O)O)NC(=O)[C@H](Cc1ccc(CC(=O)O)cc1)NC(C)=O)C(=O)O (Ac-[Phe(4-CH2COOH)]EEI-OH)
32 µM | COc1ccc(CNC(=O)[C@H](CCC(=O)O)NC(=O)[C@H](Cc2ccc(NC(=O)C(=O)O)cc2)NC(=O)c2ccccc2)cc1
